Molecular target: T1, Axl kinase (Homo sapiens, UniProt P30530)
T1 construct: endogenous in cells; host or cells: HeLa cells
T1 sequence (P30530 26-894): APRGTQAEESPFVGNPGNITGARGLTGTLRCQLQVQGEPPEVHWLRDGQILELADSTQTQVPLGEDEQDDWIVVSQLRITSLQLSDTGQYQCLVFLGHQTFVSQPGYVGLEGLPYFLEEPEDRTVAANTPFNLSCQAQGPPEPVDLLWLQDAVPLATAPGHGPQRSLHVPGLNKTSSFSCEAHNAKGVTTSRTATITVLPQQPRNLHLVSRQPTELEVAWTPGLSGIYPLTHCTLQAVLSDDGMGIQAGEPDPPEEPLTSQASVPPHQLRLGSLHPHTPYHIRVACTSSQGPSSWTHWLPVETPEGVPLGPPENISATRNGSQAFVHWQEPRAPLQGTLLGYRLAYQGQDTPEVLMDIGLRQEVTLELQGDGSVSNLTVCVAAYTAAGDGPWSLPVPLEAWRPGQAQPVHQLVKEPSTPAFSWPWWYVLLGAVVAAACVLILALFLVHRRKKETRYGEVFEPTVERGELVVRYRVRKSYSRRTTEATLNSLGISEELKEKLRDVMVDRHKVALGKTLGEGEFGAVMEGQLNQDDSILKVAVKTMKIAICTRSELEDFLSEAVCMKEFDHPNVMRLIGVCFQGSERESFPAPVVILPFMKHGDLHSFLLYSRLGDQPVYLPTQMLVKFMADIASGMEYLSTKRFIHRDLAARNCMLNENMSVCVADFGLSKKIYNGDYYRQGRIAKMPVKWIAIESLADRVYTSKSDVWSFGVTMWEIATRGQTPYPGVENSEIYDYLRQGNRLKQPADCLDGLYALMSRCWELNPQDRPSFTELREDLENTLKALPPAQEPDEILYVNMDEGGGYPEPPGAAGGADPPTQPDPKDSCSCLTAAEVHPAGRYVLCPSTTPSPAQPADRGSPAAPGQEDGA
Assay: Phospho-Akt in-cell Western assay (Axl antibody cross-linking, Hela cells)
Type: cell-based
Conditions: phospho-Akt readout, read-out: IC50, inhibition of Axl kinase
Description: The compounds of the invention were tested in the following assay for their ability to inhibit Axl activity.
Phospho-Akt in-Cell Western Assay
Starvation medium: For Axl stimulation: 0.5% FCS (fetal calf serum) in DMEM, plus Axl/Fc (extracellular domain of AXL fused to immunoglobulin Fc region) (R&D, 154-AL) 500 ng/mL.
Axl antibody cross-linking: • 1st: Mouse anti-Axl (R&D, MAB 154). • 2nd: Biotin-SP-conjugated AffiniPure goat anti-mouse IgG (H+L) (Jackson ImmunoResearch #115-065-003).
Primary antibody: Rabbit anti-human Phospho-Akt antibody (Cell Signaling 9271): 1×250 diluted in blocking buffer.
Secondary antibody: HRP (horse radish peroxidase)-conjugated Goat anti-Rabbit secondary, stock solution: Jackson lmmunoResearch (Goat anti-Rabbit HRP, #111-035-144) 1:1 diluted in glycerol, store at −20° C. The working solution: 1×2000 dilution of stock in blocking buffer.
A 96 well TC (tissue culture treated) plate was coated with 10 μg/mL poly-L-Lysine at 37° C. for 30 min, washed twice with PBS, and air-dried for 5 minutes before cells were added. Hela cells were seeded at 10,000 cells/well and the cells were starved in 100 μL starvation medium containing Axl/Fc for 24 hrs.
The cells were pre-treated with test compounds by adding 100 μL of 2× test compound to the starvation medium on the cells. The cells were incubated at 37° C. for 1 hr before stimulation.
The cells were stimulated by Axl-antibody cross-linking as follows: A 5× 1st/2nd Axl antibody mixture was made (37.5 μg/mL 1st/100 μg/mL 2nd) in starvation medium and nutated at 4° C. with thorough mixing for 1-2 hours for clustering. The resulting mix was warmed to 37° C. 50 μL of 5× Axl 1st/2nd of antibody cluster was added to the cells and the cells were incubated at 37° C. for 5 min.
After 5 minutes stimulation, the plate was flicked to remove medium and the plate was tapped onto paper towels. Formaldehyde (4.0% in PBS, 100 μL) was added to fix the cells and the cells were incubated at ambient temperature for 20 min without shaking.
The cells were washed with a plate washer buffer to remove the formaldehyde solution. The plate was flicked to remove excess wash buffer and tapped onto paper towels. Quenching buffer (100 μL) was added to each well and the cells were incubated at ambient temperature for 20 minutes without shaking.
The cells were washed with a plate washer buffer to remove the quenching buffer. Blocking buffer (100 μL) was added and the cells were incubated at ambient temperature for at least an hour with gentle shaking.
The cells were washed with a plate washer buffer and diluted primary antibody (50 μL) was added to each well (blocking buffer was added to the negative control wells instead). The plates were incubated overnight at 4° C. with gentle shaking.
The wash buffer was removed, diluted secondary antibody (100 μL) was added, and the cells were incubated at ambient temperature for 1 hour with gentle shaking. During the incubation, the chemiluminescent reagent was brought to ambient temperature.
The secondary antibody was removed by washing the cells 1× with wash buffer, 1× with PBS by plate washer. The PBS was removed from the plate and the chemiluminescent reagent (80 μL: 40 μL A and 40 μL B) was added to each well at ambient temperature.
The resulting chemiluminescence was read with a Luminomitor within 10 minutes to minimize changes in signal intensity. After reading the chemiluminescence, the cells were washed 1× with wash buffer and 1× with PBS by plate washer. The plate was tapped onto paper towels to remove excess liquid from wells and air-dried at ambient temperature for 5 minutes.
Crystal Violet working solution (60 μL) was added to each well and the cells were incubated at ambient temperature for 30 min. The crystal violet solution was removed, and the wells were rinsed with PBS, then washed 3× with PBS (200 μL) for 5 minutes each.
5% SDS solution (70 μL) was added to each well and the cells were incubated on a shaker for 30 min at ambient temperature. […]

Structure (SMILES) | IC50
CCOC(=O)N1CCN(c2ccc(Nc3nc(N[C@@H]4C5C=CC(C5)[C@@H]4C(N)=O)c4sccc4n3)cc2F)CC1 (stereo partly drawn) [Compound 208, ethyl 4-(4-(4-((2R,35)-3-carbamoylbicyclo[2.2. 1]hept-5-en-2-ylamino)thieno[3,2-d]pyrimidin-2-ylamino)-2-fluorophenyl)piperazine-1-carboxylate] | > 10 µM
NC(=O)C1C2C=CC(C2)C1Nc1nc2c(c(Nc3ccc(OCCN4CCCC4)cc3)n1)CN(Cc1ccccc1)CC2 (stereo not shown) [Compound 186, 3-(6-benzyl-4-(4-(2-(pyrrolidin-1-yl)ethoxy)phenylamino)-5,6,7,8-tetrahydropyrido[4,3-d]pyrimidin-2-ylamino)bicyclo[2.2.1] hept-5-ene-2-carboxamide] | < 5 µM
NC(=O)C1C2C=CC(C2)C1Nc1nc(Nc2ccc3c(c2)OCCCO3)nc2ccsc12 (stereo not shown) [Compound 182, 3-(2-(3,4-dihydro-2H-benzo[b][1,4]dioxepin-7-ylamino)thieno[3,2-d]pyrimidin-4-ylamino)bicyclo[2.2.1] hept-5-ene-2-carboxamide] | < 5 µM
NC(=O)C1C2C=CC(C2)C1Nc1nc(Nc2ccc(OCCN3CCCC3)cc2)nc2c1CCC2 (stereo not shown) [Compound 185, 3-(2-(4-(2-(pyrrolidin-1-yl)ethoxy)phenylamino)-6,7-dihydro-5H-cyclopenta[d]pyrimidin-4-ylamino)bicyclo[2.2.1] hept-5-ene-2-carboxamide] | < 5 µM
CNC(=O)[C@H]1CC2CC(C2(C)C)[C@@]1(C)Nc1nc(Nc2ccc(N3CCN(C4CCCCC4)CC3)cc2)nc2ccsc12 (stereo in doubt) [Compound 198, (1S,2R,3S,SR)-2-(2-(4-(4-cyclohexylpiperazin-1-yl)phenylamino)thieno [3,2-d]pyrimidin-4-ylamino)-N,2,6,6-tetramethylbicyclo[3.1.1] heptane-3-carboxamide] | < 5 µM
CNC(=O)[C@H]1C[C@H]2CC(C2(C)C)[C@@]1(C)Nc1nc(Nc2ccc(OCCN3CCCC3)cc2)nc2ccsc12 (stereo in doubt) [Compound 197, (1S,2R,3S,5R)-N,2,6,6-tetramethyl-2-(2-(4-(2-(pyrrolidin-1-yl)ethoxy)phenylamino)thieno[3,2-d]pyrimidin-4-ylamino)bicyclo[3.1.1] heptane-3-carboxamide] | < 5 µM
NC(=O)[C@H]1C2C=CC(C2)[C@H]1Nc1nc(Nc2ccc(OCCN3CCCC3)cc2)nc2c1cnn2Cc1ccccc1 (stereo partly drawn) [Compound 189, (2S,3R)-3-(1-benzyl-6-(4-(2-(pyrrolidin-1-yl)ethoxy)phenylamino)-1H-pyrazolo[3,4-d]pyrimidin-4-ylamino)bicyclo[2.2.1] hept-5-ene-2-carboxamide] | > 10 µM

Results, then the compound that gave them:

IC50 | Structure (SMILES)
< 10 µM | CONC(=O)Cc1cccc(Nc2nc(NC3C4C=CC(C4)C3C(N)=O)c3cc[nH]c3n2)c1 (racemic) [Compound 229, Racemic-(2-exo,3-exo)-N4-(3-aminocarbonylbicyclo [2.2.1]hept-5-en-2-yl)-N2-[3-(N-methoxy)-aminocarbonyl-methylphenyl]-1H-pyrrolo[2,3-d]pyrimidine-2,4-diamine]
< 5 µM | NC(=O)C1C2C=CC(C2)C1Nc1nc(Nc2ccc(OCCN3CCCC3)cc2)nc2[nH]cnc12 (racemic) [Compound 234]
< 5 µM | CC1CCN(C2CCN(c3ccc(Nc4nc(N[C@@H]5C6C=CC(C6)[C@@H]5C(N)=O)c5sc(C(F)(F)F)cc5n4)cc3F)CC2)CC1 (stereo partly drawn) [Compound 209, (2S,3R)-3-(2-(3-fluoro-4-(4-methyl-1,4′-bipiperidin-1′-yl)phenylamino)-6-(trifluoromethyl)thieno [3,2-d]pyrimidin-4 ylamino)bicyclo[2.2.1] hept-5-ene-2-carboxamide]
> 10 µM | NC(=O)[C@H]1C2C=CC(C2)[C@H]1Nc1nc(Nc2ccc(OCCN3CCCC3)cc2)nc2cc(C(F)(F)F)sc12 (stereo partly drawn) [Compound 210, (2S,3R)-3-(2-(4-(2-(pyrrolidin-1-yl)ethoxy)phenylamino)-6-(trifluoromethyl)thieno [3,2-d]pyrimidin-4-ylamino)bicyclo[2.2.1] hept-5-ene-2-carboxamide]
< 10 µM | NC(=O)[C@H]1C2C=CC(C2)[C@H]1Nc1nc(Nc2ccc(C(=O)N3CCN(C4CCCCC4)CC3)cc2)nc2cc(C(F)(F)F)sc12 (stereo partly drawn) [Compound 211, (2S,3R)-3-(2-(4-(4-cyclohexylpiperazine-1-carbonyl)phenylamino)-6-(trifluoromethyl)thieno [3,2-d]pyrimidin-4 ylamino)bicyclo[2.2.1] hept-5-ene-2-carboxamide]
< 5 µM | Cc1cc(Nc2nc(NC3C4C=CC(C4)C3C(N)=O)c3ccccc3n2)ccc1OCCN1CCCC1 (racemic) [Compound 215, Racemic-(2-exo,3-exo)-N4-(3-aminocarbonylbicyclo [2.2.1]hept-5-en-2-yl)-N2-(3-methyl-4-(2-(1-pyrrolidinyl)ethoxy)phenyl)-2,4-quinazoline-diamine]
< 5 µM | NC(=O)C1C2C=CC(C2)C1Nc1nc(Nc2ccc(OCCN3CCCC3)c(Cl)c2)nc2ccccc12 (racemic) [Compound 216, Racemic-(2-exo,3-exo)-N4-(3-aminocarbonylbicyclo [2.2.1]hept-5-en-2-yl)-N2-(3-Chloro-4-(2-(1-pyrrolidinyl)ethoxy)phenyl)-2,4-quinazoline-diamine]
< 5 µM | CCN(CC)C(=O)c1cccc(Nc2nc(NC3C4C=CC(C4)C3C(N)=O)c3cc[nH]c3n2)c1 (racemic) [Compound 222, Racemic-(2-exo,3-exo)-N4-(3-aminocarbonylbicyclo [2.2.1]hept-5-en-2-yl)-N2-(3-N,N-diethyl-aminocarbonyl-phenyl)-1H-pyrrolo[2,3-d]pyrimidine-2,4-diamine]
< 10 µM | CCOC(=O)C1C2C=CC(C2)C1Nc1nc(Nc2cccc(OC)c2)nc2[nH]ccc12 (racemic) [Compound 232, Racemic-(2-exo,3-exo)-N4-(3-ethoxycarbonylbicyclo [2.2.1]hept-5-en-2-yl)-N2-(3-methoxyphenyl)-1H-pyrrolo[2,3-d]pyrimidine-2,4-diamine]

From US7601713B2, “Kinase inhibitors and their uses” (Rigel Pharmaceuticals, Inc., priority 2005, dated 2009)
